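GI50 marks 50% less growth. Definition used: TGI = concentration required for complete inhibition of growth.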
Assays:
Test in all cases: growth of human tumour cells (NCI), 384-well format
[1] = system: A498 renal
[2] = system: HS 578T breast
[3] = system: HT29 colon
[4] = system: KM12 colon
[5] = system: MDA-MB-468 breast
[6] = system: OVCAR-5 ovarian
[7] = system: SF-539 CNS
[8] = system: SK-MEL-28 melanoma
[9] = system: SK-OV-3 ovarian
[10] = system: SNB-19 CNS
[11] = system: SNB-75 CNS
[12] = system: U251 glioblastoma
[13] = system: UACC-257 melanoma

## Cc1ccc(S(=O)(=O)Cc2nc(-c3ccc(C(=O)NCc4cccnc4)cc3)oc2C)cc1
[1]
  GI50: 56.9 nM
  TGI: 691 nM
[2]
  GI50: < 10 nM
  TGI: < 10 nM
[3]
  GI50: 18.9 nM
  TGI: 37.9 nM
[4]
  GI50: < 10 nM
  TGI: 11.9 nM
[5]
  GI50: 11.8 nM
  TGI: 26.1 nM
[6]
  GI50: < 10 nM
  TGI: < 10 nM
[7]
  GI50: < 10 nM
  TGI: < 10 nM
[8]
  GI50: 17.2 nM
  TGI: 34.3 nM
[9]
  GI50: < 10 nM
  TGI: < 10 nM
[10]
  GI50: < 10 nM
  TGI: < 10 nM
[11]
  GI50: 23.9 nM
  TGI: 53.2 nM
[12]
  GI50: < 10 nM
  TGI: < 10 nM
[13]
  GI50: 27.5 nM
  TGI: 59.6 nM

Reference: PubChem BioAssay (NCI)
